In data set [1] the test system is rat. Conditions: Prenatal developmental toxicity study, sprague dawley, Oral, Gavage/Intubation, dose end: 17 GD.
In data set [2] the test system is rat. Conditions: Acute oral toxicity, wistar, Gavage/Intubation, dose end: 7 day, group: systemic, systemic / clinical chemistry / calcium / calcium + systemic / urinalysis / calcium / calcium.
For a further data set, the system named is rabbit. To be noted: Prenatal developmental toxicity study, new zealand white, Oral, Gavage/Intubation, dose end: 19 GD.
Data set [3] concerns rat. Conditions: Prenatal developmental toxicity study, fischer, Oral, Gavage/Intubation, dose end: 10 GD.
For data set [4], the system named is rat. Conditions: Prenatal developmental toxicity study, wistar, Oral, Gavage/Intubation, dose end: 10 GD.
Data set [5] has as its system rat. Conditions: Prenatal developmental toxicity study, sprague dawley, Oral, Gavage/Intubation, dose end: 20 GD.
The test system of another data set is mouse. Conditions: Subchronic oral toxicity in rodents, other, Gavage/Intubation, dose end: 13 week, group: systemic, systemic / clinical chemistry / alanine aminotransferase (alt/sgpt) / alanine aminotransferase (alt/sgpt) + systemic / clinical chemistry / ….
The mark [6] stands for this setting: group: developmental, developmental / developmental malformation / bone / [other] + developmental / developmental malformation / bone / kinked + developmental / ….
The mark [7] stands for this setting: group: developmental, developmental / developmental malformation / heart / [other] + developmental / developmental malformation / ureter / convoluted.
The mark [8] stands for this setting: group: maternal, reproductive / reproductive performance / postimplantation loss / postimplantation loss + reproductive / reproductive performance / ….
Setting [9] is: group: maternal, systemic / organ weight / uterus / nos + reproductive / offspring survival early / live fetuses / live fetuses.
Where [10] appears, read: group: developmental, systemic / in life observation / body weight / fetal weight.
Where [11] appears, read: group: maternal, reproductive / reproductive performance / aborted / aborted + systemic / in life observation / body weight / body weight + systemic / in ….
Setting [12] is: group: developmental, developmental / developmental malformation / bone / [other] + developmental / developmental malformation / general / crown-rump length + ….
[13] abbreviates: group: maternal, reproductive / reproductive performance / resorptions / resorptions + reproductive / offspring survival early / dead fetuses / dead fetuses….
The mark [14] stands for this setting: group: developmental, developmental / developmental malformation / bone / [other] + developmental / developmental malformation / bone / incomplete ossification + ….
Setting [15] is: group: maternal, reproductive / reproductive performance / resorptions / resorptions + reproductive / offspring survival early / dead fetuses / dead fetuses.
Setting [16] is: group: developmental, developmental / developmental malformation / bone / [other] + developmental / developmental malformation / bone / fused + developmental / ….
Setting [17] is: group: maternal, reproductive / reproductive performance / postimplantation loss / postimplantation loss + systemic / in life observation / body weight / ….
The mark [18] stands for this setting: group: maternal, systemic / in life observation / body weight / body weight gain.

Here are results for 2 compounds from EPA's ToxRefDB 2.

As a reminder, the LOAEL is the lowest dose or exposure tested at which an adverse effect was seen. By NOAEL is commonly meant the highest tested level that showed no adverse finding.

On to `CC(=O)Oc1ccccc1C(=O)O` [Aspirin], for which the LOAEL is greater than 1000 mg/kg/day in the data set on rat [1] (setting [6]); greater than 1000 mg/kg/day in the data set with rat [1] (setting [8]); greater than 100 mg/kg/day in the data set with rat [2]; greater than 350 mg/kg/day with rabbit (setting [10]); greater than 350 mg/kg/day in the data set on rabbit (setting [11]); greater than 625 mg/kg/day in the data set on rat [3] (setting [12]). Further, the LOAEL was greater than 625 mg/kg/day in the data set on rat [3] (setting [13]), greater than 500 mg/kg/day in the data set with rat [4] (setting [14]) and greater than 500 mg/kg/day in the data set with rat [4] (setting [15]). Also, the no observed adverse effect level (NOAEL) in the data set on rat [1] (setting [6]) was no less than 1000 mg/kg/day; in the data set with rat [1] (setting [8]), no less than 1000 mg/kg/day; with rat [2], no less than 100 mg/kg/day; with rabbit (setting [10]), no less than 350 mg/kg/day; in the data set with rabbit (setting [11]), no less than 350 mg/kg/day; in the data set with rat [3] (setting [12]), no less than 625 mg/kg/day. The NOAEL in the data set on rat [3] (setting [13]) is no less than 625 mg/kg/day; in the data set with rat [4] (setting [14]), no less than 500 mg/kg/day; with rat [4] (setting [15]), no less than 500 mg/kg/day. In addition, the LEL with rat [1] (setting [7]) amounted to 50 mg/kg/day; in the data set with rat [1] (setting [9]) it was 50 mg/kg/day; in the data set with rat [2] it was 100 mg/kg/day; with rabbit (setting [10]), 350 mg/kg/day; with rabbit (group: maternal, systemic / in life observation / body weight / body weight gain + systemic / in life observation / clinical signs / defecation (diarrhea) + …), 250 mg/kg/day; in the data set on rat [3] (setting [12]), 500 mg/kg/day. Also, the LEL in the data set on rat [3] (setting [13]) was determined as 625 mg/kg/day; in the data set on rat [4] (setting [14]), 500 mg/kg/day; in the data set with rat [4] (setting [15]), 500 mg/kg/day. The NEL in the data set on rat [1] (setting [7]) was less than 50 mg/kg/day; in the data set with rat [1] (setting [9]), less than 50 mg/kg/day; with rat [2], less than 100 mg/kg/day; with rabbit (setting [10]), 250 mg/kg/day; in the data set with rabbit (setting [11]), 125 mg/kg/day; in the data set with rat [3] (setting [12]), less than 500 mg/kg/day. Further, the NEL with rat [3] (group: maternal, reproductive / reproductive performance / resorptions / resorptions) was 500 mg/kg/day; with rat [4] (setting [14]) it was less than 500 mg/kg/day; in the data set with rat [4] (setting [15]), less than 500 mg/kg/day.
Turning to `CC[C@H](C)C(=O)O[C@H]1C[C@@H](C)C=C2C=C[C@H](C)[C@H](CC[C@@H]3C[C@@H](O)CC(=O)O3)[C@H]21` [Lovastatin], the LOAEL was greater than 800 mg/kg/day in the data set on rat [5] (setting [16]), greater than 800 mg/kg/day in the data set with rat [5] (setting [17]) and greater than 30 mg/kg/day in the data set with mouse. In addition, the no-observed-adverse-effect level (NOAEL) is no less than 800 mg/kg/day in the data set with rat [5] (setting [16]), no less than 800 mg/kg/day in the data set with rat [5] (setting [17]) and no less than 30 mg/kg/day in the data set with mouse. The LEL in the data set with rat [5] (setting [10]) was determined as 100 mg/kg/day; in the data set on rat [5] (setting [18]), 100 mg/kg/day; in the data set with mouse, 30 mg/kg/day. The NEL with rat [5] (setting [10]) is less than 100 mg/kg/day; with rat [5] (setting [18]), less than 100 mg/kg/day; in the data set on mouse it was less than 30 mg/kg/day.
